According to publication PMC6270413 (2013):

Legend:
[1] = system: C-myc quadruplex (DNA, G4) TGGGGAGGGTGGGGAGGGTGGGGAAGG; assay: circular dichroism titration; conditions: K+ 100 mM (KCl); 10 mM Tris-HCl, 0.1 mM EDTA, pH 7.5, 20 °C; 10 µM strand; induced CD only above ratio two
[2] = system: C-myc quadruplex (DNA, G4) TGGGGAGGGTGGGGAGGGTGGGGAAGG; assay: fluorescent intercalator displacement titration; conditions: K+ 100 mM (KCl); 10 mM Tris-HCl, 0.1 mM EDTA, pH 7.5; thiazole orange displaced
[3] = system: C-myc quadruplex (DNA, G4) TGGGGAGGGTGGGGAGGGTGGGGAAGG; assay: UV-Vis absorption (hypochromism, 19 nm bathochromic shift); conditions: K+ 100 mM (KCl); 10 mM Tris-HCl, 0.1 mM EDTA, pH 7.5, 22–24 °C; 5 µM DNA, 5 µM ligand
[4] = system: TFO C-myc duplex (Table 2: C-myc duplex) (DNA, duplex) AGGGAGGGAGGTAAGAAAAAGGG/CCCTTTTTCTTACCTCCCTCCCT; assay: FID screen (thiazole orange displacement, single concentration); conditions: K+ 100 mM (KCl); 10 mM Tris-HCl, 0.1 mM EDTA, pH 7.5, 21–23 °C; 0.25 µM duplex, 0.50 µM TO, ligand 1:1
[5] = system: C-myc quadruplex (DNA, G4) TGGGGAGGGTGGGGAGGGTGGGGAAGG; assay: fluorescence titration; conditions: K+ 100 mM (KCl); 10 mM Tris-HCl, 0.1 mM EDTA, pH 7.5

Row | Compound | binding [1] | DC50 [2] | binding [3] | binding [4] | binding [5]
1 | CN1CCN(c2ccc3nc(-c4ccc5nc(-c6ccc(O)cc6)[nH]c5c4)[nH]c3c2)CC1 | yes | 1.58 ± 0.01 µM | yes | yes | 
2 | CN1C(=Cc2cc[n+](C)c3ccccc23)Sc2ccccc21 |  |  |  |  | yes
3 | NC[C@@H]1O[C@H](O[C@H]2[C@@H](O)[C@H](O[C@@H]3[C@@H](O)[C@H](N)C[C@H](N)[C@H]3O[C@H]3O[C@H](CN)[C@@H](O)[C@H](O)[C@H]3N)O[C@@H]2CO)[C@H](N)[C@@H](O)[C@@H]1O |  | > 5.5 µM |  |  | 
